Consider five compounds from patent US8785446B2, “Treating post-seizure patients” (priority 2009, dated 2014).

The structures appear in SMILES notation. “Also recorded” adds a separate entry of the source.

One data set has as its system CaMKII. The data set is described as follows: CaMKII activity (ELISA) after hypoxic seizures and in vivo AMPAR antagonist treatment. As to conditions: 1 hour following hypoxic seizures; in vivo administration vs vehicle. The method, then: (§1) Protein kinase A (PKA) […] mediates the phosphorylation of GluR1 S845 and protein kinase C (PKC) is involved in the phosphorylation of both GluR1 S831 (Kameyama et al., 1998; Mammen et al., 1997) and GluR2 S880 (Seidenman et al., 2003). […] Similarly, CaMKII activity increased at 1 hour post-seizures before returning to baseline levels at 6 hours post-hypoxia. […] The rapid seizure-induced activation of these protein kinases are occurring coincident with the alterations in phosphorylation state of their known substrates, GluR1 S831, GluR1 S845, and GluR2 S880.
(§2) To determine whether seizure-induced activation of AMPAR plays a critical role in the alterations in EPSCs and subunits reported here, we examined whether pharmacologic inhibition of AMPARs in vivo following hypoxic seizures leads to a decrease in the activity of Ca^2+ dependent protein kinases and GluR1 subunit phosphorylation state. […] Within 30 minutes after hypoxic seizures, rats were treated with a single dose of systemically administered AMPAR antagonists NBQX (20 mg/kg), topiramate (30 mg/kg) or GYKI-53773 (7.5 mg/kg), and compared to vehicle-treated (0.1 ml PBS) hypoxic controls and normoxic littermates. These treatment doses are the same as the treatment paradigm in which we previously observed an attenuation of long-term epileptogenic changes (Koh et al., 2004). […] Importantly, blockade of AMPAR-mediated neurotransmission is the common mechanistic feature of these three structurally unrelated compounds and may represent the potential mode of mediating alterations.

The conditions of data set [1]: cited from earlier work.
A further data set has as its system PKA. The data set is described as follows: PKA activity (ELISA) after hypoxic seizures and in vivo AMPAR antagonist treatment. As to conditions: 1 hour following hypoxic seizures; vs vehicle. Also noted: species or system rat. How it is done:
as §1, §2

Data set [2] concerns AMPAR-mediated sEPSCs in CA1 neurons. The data set is described as follows: AMPAR-mediated sEPSCs in ex vivo hippocampal slices after post-seizure treatment in vivo. Also noted: species or system rat. As to conditions: for sEPSC amplitude / sEPSC frequency: hippocampal slices prepared 1 hour after administration post hypoxic seizure, vs vehicle; for acute and subacute enhancement in AMPAR EPSCs: post-treatment during the early period after seizure induction. How it is done: Neonatal seizures have been described to enhance the excitability of hippocampal networks as well as cause alterations in long-term network excitability (Jensen et al., 1991; Sanchez et al., 2001; Silverstein and Jensen, 2007; Cornejo et al., 2007), but their acute effects on AMPAR function have not been examined. We compared spontaneous (s) and miniature (m) AMPAR-mediated excitatory postsynaptic currents (EPSCs) in CA1 pyramidal neurons in P10 rat pup hippocampal slices removed 1 hour after hypoxia-induced seizures (hypoxic seizures) and normoxic control rat pups.
Following hypoxic seizures, NBQX, topiramate or GYKI-53773 were administered to the rat pups experiencing hypoxic seizures and hippocampal slices were prepared 1 hour after administration of AMPAR antagonists.

For the next data set, the system named is PKC. The data set is described as follows: PKC activity (ELISA) after hypoxic seizures and in vivo AMPAR antagonist treatment. Also noted: species or system rat. As to conditions: 6 hours post-hypoxic seizures; vs vehicle. The method, then: as §1, §2
Data set [3] has as its system GluR1 S831 and GluR1 S845. The data set can be described thus: AMPAR GluR1 subunit phosphorylation in hippocampus after post-seizure AMPAR antagonist treatment in vivo. Also noted: species or system rat. As to conditions: for GluR1 S845 phosphorylation: 12 hours after hypoxia-induced seizures; for GluR1 S845 phosphorylation / GluR1 S831 phosphorylation: single systemic dose within 30 minutes after seizures, vs vehicle; for GluR1 S831 phosphorylation: 12 hours after hypoxic seizures; for GluR1 subunit phosphorylation: post-treatment during the early period after seizure induction. The text has this:
The strength of synaptic transmission in intact neuronal networks, such as in LTP, can be regulated by altered AMPAR function mediated by phosphorylation of GluR1 S831 and GluR1 S845 (Barria et al., 1997; Lee et al., 2000; Lee et al., 2003).
To determine whether seizure-induced activation of AMPAR plays a critical role in the alterations in EPSCs and subunits reported here, we examined whether pharmacologic inhibition of AMPARs in vivo following hypoxic seizures leads to a decrease in the activity of Ca^2+ dependent protein kinases and GluR1 subunit phosphorylation state. […] Within 30 minutes after hypoxic seizures, rats were treated with a single dose of systemically administered AMPAR antagonists NBQX (20 mg/kg), topiramate (30 mg/kg) or GYKI-53773 (7.5 mg/kg), and compared to vehicle-treated (0.1 ml PBS) hypoxic controls and normoxic littermates.

In another data set the test system is hypoxia-induced seizures. As to conditions: post-seizure treatment within the first 48 hours following hypoxic seizures; cited from earlier work.
The next data set has as its system KA-induced seizures. The data set is described as follows: Susceptibility to KA-induced seizures 3 days after hypoxic seizures at P10. Format: in vivo, rat. The method, then: We have previously reported that enhanced hippocampal excitability observed in rat pups following hypoxia-induced seizures is reflected in the increased susceptibility to KA-induced seizures in these animals at both short (72-96 h) and long (40+ days) intervals following the initial seizures at P10 (Koh et al., 2004).

The subject of the next data set is GluR2-lacking AMPARs. The data set is described as follows: Evoked EPSC recording in CA1 pyramidal neurons of hippocampal slices removed 1 hour after hypoxic seizures. Format: cell-based, rat. As to conditions: bath application 10 μM; slices 1 hour after in vivo seizures in P10 pup; compared to normoxic controls. How it is done: The age window around P10-12 is characterized by a relative preponderance of Ca^2+ permeable AMPARs in hippocampal and neocortical neurons resulting from a developmentally regulated decrease in GluR2 subunit expression (Sanchez et al., 2001; Durand and Zukin, 1993; Talos et al., 2006b; Kumar et al., 2002). Additionally, hypoxic seizures have been previously associated with a decrease in the expression of GluR2 mRNA and protein 48 hours following the induction of seizures (Sanchez et al., 2001). However the acute alterations in the phosphorylation and function of GluR-2 lacking AMPARs following hypoxic seizures have not been well-characterized. […] Expression of inwardly rectifying AMPAR-mediated currents can result from an increase in phosphorylation of GluR2 S880 and resultant trafficking of the GluR2 subunit out of the synaptic membrane (Chung et al., 2000; Kim et al., 2001; Seidenman et al., 2003). Indeed, GluR2 S880 phosphorylation was increased in the hippocampus of rats experiencing hypoxic seizures as compared to normoxic litter mates, maximal at 12 hours post hypoxia. This seizure-induced phosphorylation of GluR2 S880 may contribute to the subacute changes in GluR2 expression reported previously (Sanchez et al., 2001), as well as increased inward rectification of EPSPs reported above.

Another data set concerns neonatal seizures. As to conditions: cited from earlier work.

For the compound `CC(=O)N1N=C(c2ccc(N)cc2)c2cc3c(cc2C[C@H]1C)OCO3` [GYKI-53773], the “activity of CaMKII” value in the data set with CaMKII is reported as “reduced to near baseline levels; also recorded: blocked”. The cognitive impairment entry in data set [1] (preliminary human studies) is reported as “less cognitive impairment”. Further, in the data set with PKA, the “seizure-induced PKA activation” value is reported as “blocked”. Besides, in data set [2], the sEPSC amplitude result is reported as “significantly attenuated”; the sEPSC frequency entry is reported as “attenuation”; the “acute and subacute enhancement in AMPAR EPSCs” value (from here on “acute and subacute enhancement”) is on record as “blocked”. The “seizure-induced increase in PKC activity” value in the data set with PKC is “significantly reduced; also recorded: blocked”. In addition, in data set [3], the “GluR1 S845 phosphorylation” value is listed as “significantly reduced to baseline normoxia levels”, the “GluR1 S831 phosphorylation” value is recorded as “significantly reduced to baseline normoxia levels” and the GluR1 subunit phosphorylation entry was “blocked”.

On to `NS(=O)(=O)c1cccc2c1c([N+](=O)[O-])cc1nc(O)c(O)nc12` [NBQX], for which the “activity of CaMKII” value with CaMKII was “reduced to near baseline levels; also recorded: blocked”. In the data set with hypoxia-induced seizures, the “long-term increase in susceptibility to seizures” value is recorded as “prevents” and the seizure-induced neuronal injury entry is “prevents”. For the same compound, the latency to seizures result in the data set on KA-induced seizures (P13, 20 mg/kg i.p., compared to vehicle treated hypoxic controls) was “significantly longer”. For the same compound, the maximal seizure severity entry with KA-induced seizures (P13, 20 mg/kg i.p., compared to vehicle-treated pups with prior hypoxic seizures) is “significantly lower”. In the data set with KA-induced seizures (at P13 (72 hours post-hypoxic seizures), 20 mg/kg i.p. following hypoxic seizures, KA 2 mg/kg i.p.), the enhanced seizure susceptibility result is “significantly attenuated; also recorded: reversal”. Moreover, the “seizure-induced PKA activation” value with PKA is “reduced significantly; also recorded: blocked”. For the same compound, in data set [2], the sEPSC amplitude entry is recorded as “significantly attenuated”; the sEPSC frequency result is “attenuation”; the “acute and subacute enhancement” value is reported as “blocked”. Besides, the “seizure-induced increase in PKC activity” value with PKC was “significantly reduced; also recorded: blocked”. For the same compound, in data set [3], the “GluR1 S845 phosphorylation” value is reported as “significantly reduced to baseline normoxia levels”, the “GluR1 S831 phosphorylation” value is listed as “significantly reduced to baseline normoxia levels” and the GluR1 subunit phosphorylation result was “blocked”.

Turning to `CCCC(=O)N[C@@H](Cc1ccc(O)cc1)C(=O)NCCCCNCCCNCCCN` [PhTX-433], the “eEPSCs in CA1 pyramidal neurons post-hypoxia” value with GluR2-lacking AMPARs was “blocked the majority of eEPSCs”.

For `O=C1NC(=O)C(c2ccccc2)(c2ccccc2)N1` [phenyloin], in the data set on neonatal seizures (first line therapy), the “infants with neonatal seizures in whom efficacy for acute seizure suppression is lacking” value is approximately 50%. Also, the “effect on long-term outcome” value with neonatal seizures (infants with neonatal seizures) is on record as “no effect”.

Take `CC1(C)O[C@@H]2[C@@H](CO[C@@]3(COS(N)(=O)=O)OC(C)(C)O[C@@H]23)O1` [topiramate]: the “activity of CaMKII” value in the data set with CaMKII is given as “reduced to near baseline levels; also recorded: blocked”. In data set [1] (healthy volunteers and patients with epilepsy), the “threshold for memory impairment” value was “lower than lamotrigine and valproate”. Further, in the data set on hypoxia-induced seizures, the “long-term increase in susceptibility to seizures” value is reported as “prevents” and the seizure-induced neuronal injury entry was “prevents”. In the data set on PKA, the “seizure-induced PKA activation” value is on record as “reduced significantly; also recorded: blocked”. Also, in data set [2], the sEPSC amplitude result is given as “significantly attenuated”; the sEPSC frequency entry is given as “attenuation”; the “acute and subacute enhancement” value was “blocked”. Further, in the data set with PKC, the “seizure-induced increase in PKC activity” value was “blocked”. For the same compound, in data set [3], the “GluR1 S845 phosphorylation” value was “significantly reduced to baseline normoxia levels”, the “GluR1 S831 phosphorylation” value was “significantly reduced to baseline normoxia levels” and the GluR1 subunit phosphorylation entry is given as “blocked”.
